In ChEMBL document CHEMBL1201862, “PubChem BioAssay data set” (2004):
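These data come from cells grown in 96-well plates and exposed to compound for 48 hours at five concentrations. The concentration for 50% growth inhibition is given as GI50.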 The source made the active and inactive calls. No stated cut-off is given here; in the data, active = GI50 up to about 1.1 µM and inactive = higher.

Assays:
Experiment in all cases: DTP human tumour cell line panel, 48 h
786-0 = system: 786-0
A498 = system: A498
HOP-62 = system: HOP-62
Hs-578T = system: Hs-578T
IGROV-1 = system: IGROV-1
K562 = system: K562
KM12 = system: KM12
MCF7 = system: MCF7
MDA-N = system: MDA-N
MOLT-4 = system: MOLT-4
NCI-H460 = system: NCI-H460
OVCAR-4 = system: OVCAR-4
OVCAR-5 = system: OVCAR-5
RPMI-8226 = system: RPMI-8226
SF-268 = system: SF-268
SF-539 = system: SF-539
SK-MEL-5 = system: SK-MEL-5
SNB-75 = system: SNB-75
TK-10 = system: TK-10
HOP-92 = system: HOP-92

Measured: GI50

O=C1CCCC2=C1CC1=C(CCCC1=O)N2c1ccc(Cl)cc1
inactive: 786-0 > 100 µM | A498 > 100 µM | HOP-62 > 100 µM | Hs-578T > 100 µM | IGROV-1 > 100 µM | K562 > 100 µM | KM12 > 100 µM | MCF7 > 100 µM | MDA-N > 100 µM | MOLT-4 94.6 µM | NCI-H460 > 100 µM | OVCAR-4 > 100 µM | OVCAR-5 > 100 µM | RPMI-8226 > 100 µM | SF-268 > 100 µM | SF-539 > 100 µM | SK-MEL-5 > 100 µM | SNB-75 > 100 µM | TK-10 > 100 µM

c1ccc(/N=C(/Nc2ccccc2)N2CCCC2)cc1
inactive: 786-0 > 100 µM | HOP-62 > 100 µM | HOP-92 > 100 µM | Hs-578T > 100 µM | IGROV-1 > 100 µM | K562 > 100 µM | KM12 > 100 µM | MCF7 > 100 µM | MDA-N > 100 µM | MOLT-4 > 100 µM | NCI-H460 > 100 µM | OVCAR-4 > 100 µM | OVCAR-5 > 100 µM | RPMI-8226 > 100 µM | SF-268 > 100 µM | SK-MEL-5 > 100 µM | SNB-75 > 100 µM | TK-10 > 100 µM

COC(C(=O)NN)c1ccccc1 (stereo not drawn)
inactive: 786-0 > 100 µM | HOP-62 > 100 µM | HOP-92 > 100 µM | Hs-578T > 100 µM | IGROV-1 > 100 µM | K562 > 100 µM | KM12 > 100 µM | MCF7 > 100 µM | MDA-N > 100 µM | MOLT-4 > 100 µM | NCI-H460 > 100 µM | OVCAR-5 > 100 µM | RPMI-8226 > 100 µM | SF-268 > 100 µM | SF-539 > 100 µM | SK-MEL-5 > 100 µM | SNB-75 27.8 µM | TK-10 > 100 µM

CCC(C)[C@@H](NCc1ccccc1)[C@H](OCc1ccccc1)[C@@H]1COC(C)(C)O1 (stereo partly drawn)
inactive: 786-0 18.8 µM | HOP-62 32.2 µM | HOP-92 10.4 µM | Hs-578T 21.1 µM | IGROV-1 17.6 µM | K562 20.3 µM | KM12 18.8 µM | MCF7 21.2 µM | MDA-N 32.1 µM | MOLT-4 25.5 µM | OVCAR-4 28.8 µM | OVCAR-5 26.1 µM | RPMI-8226 15.8 µM | SF-268 22.8 µM | SK-MEL-5 12.8 µM | SNB-75 32.6 µM | TK-10 15.6 µM

O=C(Cn1c(=O)oc2ccccc21)N(c1ccccc1)c1ccccc1
inactive: 786-0 > 100 µM | A498 > 100 µM | HOP-62 > 100 µM | Hs-578T 40.9 µM | IGROV-1 26.5 µM | K562 > 100 µM | KM12 > 100 µM | MCF7 > 100 µM | MDA-N > 100 µM | MOLT-4 > 100 µM | NCI-H460 > 100 µM | OVCAR-5 > 100 µM | RPMI-8226 > 100 µM | SF-268 67.5 µM | SF-539 88.9 µM | SK-MEL-5 > 100 µM | SNB-75 11.5 µM | TK-10 > 100 µM

CC(=O)Oc1cc2oc(=O)cc(C)c2cc1OC(C)=O
inactive: 786-0 61 µM | A498 44.6 µM | HOP-62 51.8 µM | Hs-578T 68.4 µM | IGROV-1 27.9 µM | K562 55.7 µM | KM12 68.7 µM | MCF7 38.8 µM | MDA-N > 100 µM | MOLT-4 74.8 µM | OVCAR-4 85.7 µM | OVCAR-5 > 100 µM | RPMI-8226 45.7 µM | SF-268 36.6 µM | SF-539 31.3 µM | SK-MEL-5 > 100 µM | SNB-75 48.4 µM | TK-10 44.5 µM
